Measurements published in patent US8603493B2, “Carbosilane dendrimers, preparation method thereof and use of same” (Dendrico, S.L., priority 2005, dated 2013).

Columns and labels:
ODN TAR = assay: Stability of the NN-ODN dendriplex in complete medium with 10% foetal calf serum; conditions: TAR+NN 2/1, complete medium with 10% FCS
Procedure: With the intention of seeing the stability of the dendriplexes in the presence of serum over time, a test was performed wherein to the samples was added complete medium which contained 10% foetal calf serum (FCS). The following samples were prepared with TAR as ODN:
As indicated, 20′ after its preparation 100 μl of complete medium were added to samples 1, 2 and 3. From each one of the samples 45 μl aliquots were taken after 40 minutes, 4 hours and 17 hours and they were subjected to electrophoresis in agarose gel. The samples were loaded in the gel following the ordering of its numbering from left to right, having previously situated a 100 bp ladder marker. In the last point (17 hours), only the 2/1 ratio complex was tested against ODN without NN. The results are shown in FIG. 7, wherein there appears a date on each one of the wells corresponding to samples with TAR+NN in 2/1 ratio.

U87-MG cells = assay: Toxicity in U-87-MG cells: tests with MTT
Procedure: A test with U-87-MG cells was performed, wherein the effect of the dendrimers on the viability of said lines was studied at different times. To do this, 15000 (24 hour incubations), 7000 (3 day incubations) or 1500 (7 day incubations) cells per well were plated in 96-well plates. The cells were incubated with different concentrations (1 μM, 5 μM and 10 μM) either NN dendrimer or NN16 dendrimer, during 24 hours, 3 days and 7 days. […] Two different positive controls were also used: cells treated with 7% DMSO and cells treated with 1% Triton X-100.
In the case of Superfect, three doses were tested, the optimum dose recommended by the manufacturer (2.5 μl), a lower dose (1.25 μl) and another higher dose (5 μl). With regard to Polyfect, specifically designed for adherent cells, the three doses tested were: optimum dose (0.6 μl), lower dose (0.3 μl) and higher dose (1.2 μl).
After each corresponding incubation time, a test was performed with MTT analogous to that described in Example 38. At the absorbance value obtained in the untreated cells (C−) it was given the value of 1 and the moiety of the absorbencies produced was used to refer to it.

Q: Which results are given for CN(CCO[Si](C)(C)CCC[Si](C)(CCC[Si](CCC[Si](C)(CCC[Si](C)(C)OCCN(C)CC[N+](C)(C)C)CCC[Si](C)(C)OCCN(C)CC[N+](C)(C)C)(CCC[Si](C)(CCC[Si](C)(C)OCCN(C)CC[N+](C)(C)C)CCC[Si](C)(C)OCCN(C)CC[N+](C)(C)C)CCC[Si](C)(CCC[Si](C)(C)OCCN(C)CC[N+](C)(C)C)CCC[Si](C)(C)OCCN(C)CC[N+](C)(C)C)CCC[Si](C)(C)OCCN(C)CC[N+](C)(C)C)CC[N+](C)(C)C.[I-].[I-].[I-].[I-].[I-].[I-].[I-].[I-] [NN, 2G-[Si(O(CH2)2N(Me)(CH2)2NMe3^+I^−)]8]?
A: time after which the NN dendrimer releases the ODN (ODN TAR): 17 h; viability (MTT), untreated cells (C−) = 1 (U87-MG cells): 0.6-0.75
